Data reported in patent US20050203102A1, “antibacterial agents” (priority 2004, published 2005).
Converted amounts (≈) assume the structure as drawn.

What was measured:
Assay in all cases: Antimicrobial testing, Agar Dilution Method (NCCLS), MIC
Assay type in all cases: cell-based
E. faecium ATCC 700221 = details: Enterococcus faecium, ATCC700221, Mueller Hinton Agar, 35° C., 20 hours, read-out: Antimicrobial Screening (MIC) E. faecium ATCC 700221
Experimental: (§1) Briefly, the compounds of invention were weighed, dissolved in Dimethyl Sulfoxide, serially diluted in the same solvent and then incorporated into molten Mueller Hinton Agar in a petridish before solidification, with each petridish containing a different concentration of a compound.
(§2) The Bacterial Inoculum was prepared by touching the tops of 3 to 5 well isolated bacterial colonies with the same morphological appearance from an 18 hour old culture with an inoculating loop, transferring the growth to a tube containing 5 ml of normal saline and adjusting the turbidity of the saline suspension to 0.5 Macfarland Turbidity Standard equivalent to a bacterial population of 1.5×10^8 colony forming units (CFU) per millilitre of suspension.
(§3) The bacterial inoculum prepared in the above manner was inoculated onto petri dishes containing Mueller Hinton Agar which had earlier been incorporated with different dilutions of the compounds of invention by a Multipoint Inoculator with each inoculum spot containing approximately 1×10^4 colony forming units (CFU) of bacteria.
(§4) The inoculated petridishes were incubated at 35° C. in an ambient atmosphere for 20 hours. Petridishes containing different concentrations of Vancomycin and Oxacillin and inoculated with Staphylococcus aureus, Coagulase Negative Staphylococci and Enterococci were incubated for 24 hours.
(§5) The following minimum inhibitory concentrations (μg/ml) were obtained for representative compounds of the invention which are given in the following table: […]

E. faecalis ATCC 29212 = details: Enterococcus faecalis, ATCC29212, Mueller Hinton Agar, 35° C., 20 hours, read-out: Antimicrobial Screening (MIC) E. faecalis ATCC 29212
Experimental: as §1, §2, §3, §4, §5

S. epidermidis MRO 02002 = details: Staphylococcus epidermidis, MRO02002, Mueller Hinton Agar, 35° C., 20 hours, read-out: Antimicrobial Screening (MIC) S. epidermidis MRO 02002
Experimental: as §1, §2, §3, §4, §5

S. aureus MRO 00001 = details: Staphylococcus aureus, MRO00001, Mueller Hinton Agar, 35° C., 20 hours, read-out: Antimicrobial Screening (MIC) S. aureus MRO 00001
Experimental: as §1, §2, §3, §4, §5

MIC (E. faecium ATCC 700221) | MIC (E. faecalis ATCC 29212) | MIC (S. epidermidis MRO 02002) | MIC (S. aureus MRO 00001) | SMILES
0.5 µg/mL (≈ 0.9 µM) | 1 µg/mL (≈ 1.8 µM) | 2 µg/mL (≈ 3.6 µM) | 1 µg/mL (≈ 1.8 µM) | COC(=O)NC[C@H]1CN(c2ccc(N3CCN(c4ccc(/C=C5\SC(=O)NC5=O)cc4)CC3)c(F)c2)C(=O)O1 [Example 9, (S)-N-3-13-fluoro-4-(4-(5-methylene-1,3-thiazolidine-2,4-dione)phenylpiperazin-1-yl)phenyll-1,3-oxazolidin-2-one-5-methyl carbamate]
1 µg/mL (≈ 1.85 µM) | 1 µg/mL (≈ 1.85 µM) | 1 µg/mL (≈ 1.85 µM) | 1 µg/mL (≈ 1.85 µM) | CC(=O)NC[C@H]1CN(c2ccc(N3CCN(c4ccc(/C=C5/SC(=O)NC5=O)cc4)CC3)c(F)c2)C(=O)O1 [Example 4]
4 µg/mL (≈ 7.17 µM) | 4 µg/mL (≈ 7.17 µM) | 4 µg/mL (≈ 7.17 µM) | 4 µg/mL (≈ 7.17 µM) | CC(=O)NC[C@H]1CN(c2ccc(N3CCN(c4ccc(CC5C(=O)Nc6ccccc65)cc4)CC3)c(F)c2)C(=O)O1 (some centres unmarked) [Example 6]
1 µg/mL (≈ 2.27 µM) | 2 µg/mL (≈ 4.54 µM) | 1 µg/mL (≈ 2.27 µM) | 1 µg/mL (≈ 2.27 µM) | CC(=O)NC[C@H]1CN(c2ccc(N3CCN(c4ccc(C=O)cc4)CC3)c(F)c2)C(=O)O1 [Example 1]
4 µg/mL (≈ 6.97 µM) | 4 µg/mL (≈ 6.97 µM) | 4 µg/mL (≈ 6.97 µM) | 4 µg/mL (≈ 6.97 µM) | COC(=O)NC[C@H]1CN(c2ccc(N3CCN(c4ccc(CC5C(=O)Nc6ccccc65)cc4)CC3)c(F)c2)C(=O)O1 (some centres unmarked) [Example 17]
> 16 µg/mL | > 16 µg/mL | > 16 µg/mL | > 16 µg/mL | CCOC(=O)NC[C@H]1CN(c2ccc(N3CCN(c4ccc(CC5C(=O)Nc6ccccc65)cc4)CC3)c(F)c2)C(=O)O1 (some centres unmarked) [Example 15]
1 µg/mL (≈ 1.8 µM) | 2 µg/mL (≈ 3.6 µM) | 1 µg/mL (≈ 1.8 µM) | 1 µg/mL (≈ 1.8 µM) | CC(=O)NC[C@H]1CN(c2ccc(N3CCN(c4ccc(/C=C5/SC(=S)NC5=O)cc4)CC3)c(F)c2)C(=O)O1 [Example 5]
> 16 µg/mL | > 16 µg/mL | > 16 µg/mL | > 16 µg/mL | CCOC(=O)NC[C@H]1CN(c2ccc(N3CCN(c4ccc(/C=C5/SC(=S)N(CC(=O)O)C5=O)cc4)CC3)c(F)c2)C(=O)O1 [Example 12]
> 16 µg/mL | > 16 µg/mL | > 16 µg/mL | > 16 µg/mL | COC(=O)NC[C@H]1CN(c2ccc(N3CCN(c4ccc(/C=C5/SC(=S)NC5=O)cc4)CC3)c(F)c2)C(=O)O1 [Example 11]
4 µg/mL (≈ 7.17 µM) | 8 µg/mL (≈ 14.3 µM) | 8 µg/mL (≈ 14.3 µM) | 8 µg/mL (≈ 14.3 µM) | COC(=O)NC[C@H]1CN(c2ccc(N3CCN(c4ccc(CC5SC(=O)NC5=O)cc4)CC3)c(F)c2)C(=O)O1 (stereo partly drawn) [Example 14, [(5S)-3-[3-fluoro-4-(4-(5-methy-1,3-thiazolidine-2,4-dione)phenylpiperazin-1-yl)phenyll-1,3-oxazolidin-2-one-5-methyl carbamate]
> 16 µg/mL | > 16 µg/mL | > 16 µg/mL | > 16 µg/mL | CCOC(=O)NC[C@H]1CN(c2ccc(N3CCN(c4ccc(/C=C5/SC(=S)NC5=O)cc4)CC3)c(F)c2)C(=O)O1 [Example 13]
> 16 µg/mL | > 16 µg/mL | > 16 µg/mL | > 16 µg/mL | CCOC(=O)NC[C@H]1CN(c2ccc(N3CCN(c4ccc(CC5SC(=S)NC5=O)cc4)CC3)c(F)c2)C(=O)O1 (some centres unmarked) [Example 16]
16 µg/mL (≈ 28.8 µM) | > 16 µg/mL | > 16 µg/mL | > 16 µg/mL | CC(=O)NC[C@H]1CN(c2ccc(N3CCN(c4ccc(/C=C5\C(=O)Nc6ccccc65)cc4)CC3)c(F)c2)C(=O)O1 [Example 3]
0.5 µg/mL (≈ 0.875 µM) | 0.5 µg/mL (≈ 0.875 µM) | 0.5 µg/mL (≈ 0.875 µM) | 0.5 µg/mL (≈ 0.875 µM) | COC(=S)NC[C@H]1CN(c2ccc(N3CCN(c4ccc(/C=C5\SC(=O)NC5=O)cc4)CC3)c(F)c2)C(=O)O1 [Example 8, (S)-N-3-[3-fluoro-4-(4-(5-methylene-1,3-thiazolidine-2,4-dione)phenylpiperazin-1-yl)phenyll-1,3-oxazolidin-2-one-5-methylthio carbamate]
8 µg/mL (≈ 12.7 µM) | 8 µg/mL (≈ 12.7 µM) | 8 µg/mL (≈ 12.7 µM) | 8 µg/mL (≈ 12.7 µM) | COC(=O)NC[C@H]1CN(c2ccc(N3CCN(c4ccc(/C=C5/SC(=S)N(CC(=O)O)C5=O)cc4)CC3)c(F)c2)C(=O)O1 [Example 10]
8 µg/mL (≈ 14.8 µM) | 8 µg/mL (≈ 14.8 µM) | 8 µg/mL (≈ 14.8 µM) | 8 µg/mL (≈ 14.8 µM) | CC(=O)NC[C@H]1CN(c2ccc(N3CCN(c4ccc(CC5SC(=O)NC5=O)cc4)CC3)c(F)c2)C(=O)O1 (some centres unmarked) [Example 7]
2 µg/mL (≈ 3.26 µM) | 2 µg/mL (≈ 3.26 µM) | 2 µg/mL (≈ 3.26 µM) | 2 µg/mL (≈ 3.26 µM) | CC(=O)NC[C@H]1CN(c2ccc(N3CCN(c4ccc(/C=C5/SC(=S)N(CC(=O)O)C5=O)cc4)CC3)c(F)c2)C(=O)O1 [Example 2]
